Holding throughout (assay): DTP human tumour cell line panel, 48 h
The subject of assay [1] is CCRF-CEM leukemia.
Assay [2] has as its system HCT-15 colon.
In assay [3] the test system is MDA-MB-435.
In assay [4] the test system is HS 578T breast.
Assay [5] relates to SW-620 colon.
For assay [6], the system named is HCT-116 colon.
Assay [7] relates to HOP-92 NSCLC.
The subject of assay [8] is COLO 205 colon.
For assay [9], the system named is MDA-N.
In assay [10] the test system is M14 melanoma.

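Five concentrations, 48 hours, 96-well plates. The concentration for 50% growth inhibition is given as GI50. The concentration for full growth arrest is given as TGI.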

Turning to `CCOC(=O)C(NC(=O)OC(C)(C)C)C(=O)OCC`, the TGI in [1], in [2], in assay [3], in assay [4], in assay [5] and in assay [6] was greater than 100 µM in each case. Further, the TGI in assay [7] and in assay [8] was greater than 100 µM each time.
As to `NC1CC=C(COC(=O)C(O)(c2ccccc2)C2CC2)CC1` (centres undefined), the TGI in assay [9], in assay [10], in assay [2], in assay [5], in assay [6] and in assay [8] was greater than 100 µM throughout.
For `Cc1nc2ccccc2c(/C=C/c2ccc(Cl)cc2)c1C(=O)/C=C/c1ccccc1`, the GI50 (in general, the concentration giving 50% growth inhibition) was 1320 nM in assay [1], 1360 nM in assay [2] and 1980 nM in assay [8]. Besides, the TGI (as a rule, the concentration at which net growth stops) in assay [1] was greater than 100 µM; in assay [2], 4.03 µM; in [8], 4.62 µM.
Consider `Cc1ccc(CCC(=O)C(=O)O)s1`, for which the TGI in assay [1], in assay [10], in assay [2], in [5], in [6] and in assay [7] was greater than 100 µM in each case. In [8], the TGI was greater than 100 µM.
In the case of `O=c1[nH]c(=S)c2cc3c(=S)[nH]c(=O)n(CCO)c3nc2n1CCO`, the total growth inhibition concentration (TGI) in [9], in [1], in [10], in [2], in assay [3] and in assay [5] was greater than 100 µM each time. Moreover, the TGI in assay [6], in [7] and in assay [8] was greater than 100 µM each time.
Take `CC(=O)Nc1ccccc1NC1CC(C)N(c2ccccc2)N1C(C)=O` (centres undefined): the TGI in assay [9], in [1], in assay [10], in assay [2], in assay [3] and in [5] was greater than 10 µM in each case. In addition, the TGI in [7] and in assay [8] was greater than 10 µM each time.
As for `Fc1cc(-c2cc(-c3ccc4c(c3)OCO4)n[nH]2)c(Cl)cc1Cl`, the TGI was greater than 89 µM in [1]; 18.3 µM in assay [10]; 49.1 µM in [2]; 30.9 µM in assay [3]; greater than 45.4 µM in [4]; 28.9 µM in assay [5]. Moreover, the TGI is 4.17 µM in assay [6], 6.21 µM in assay [7] and greater than 23.4 µM in assay [8].
With `CC(C)(C)OC(=O)NCC(=O)N1CCN(C(=O)CNC(=O)OC(C)(C)C)CC1`, the TGI in assay [9], in assay [1], in assay [10], in assay [2], in assay [3] and in assay [5] was greater than 100 µM each time. Further, the TGI in assay [6], in assay [7] and in assay [8] was greater than 100 µM each time.
Consider `COc1ccc(-c2nn(-c3ccc(NC(=O)Nc4ccc(Cl)c(C(F)(F)F)c4)cc3)cc2-c2ccncc2)cc1Cl`, for which the GI50 in [1] was 1400 nM; in assay [10] it was 1490 nM; in assay [2] it was 1120 nM; in assay [3], 1790 nM; in assay [4], 1100 nM; in [5] it was 1930 nM. For the same compound, the GI50 in [6] was 1100 nM; in assay [7], 1140 nM; in assay [8], 1620 nM. Further, the total growth inhibition concentration (TGI) in assay [1] came out at 6.65 µM; in assay [10] it was 3.13 µM; in assay [2], 3.03 µM; in assay [3] it was 4.8 µM; in [4] it was 4.22 µM; in assay [5] it was 4.4 µM. Also, the TGI in [6] was determined as 2.69 µM; in assay [7], 3.84 µM; in assay [8] it was 3.13 µM.
As to `CCN1CCC(O)(/C=C/c2ccc(OC)cc2)C(C(=O)/C=C/c2ccc(OC)cc2)C1` (centres undefined), the total growth inhibition concentration (TGI) in [1] is 5.76 µM; in [10], 34.1 µM; in [3], 19 µM; in assay [5], 17.9 µM; in [6], 14.7 µM; in assay [7] it was 21.3 µM. Further, the TGI in [8] is 20.6 µM.
Take `O=c1ccc2nc(-c3ccccn3)nn(-c3ccccc3)c-2c1`: the GI50 in assay [10] is 3390 nM; in assay [3], 2290 nM; in assay [4], 2850 nM; in assay [5], 1770 nM; in assay [6], 1770 nM; in [7] it was 1150 nM. Also, the GI50 in [8] is 2200 nM. For the same compound, the TGI is 13.6 µM in assay [10]; 5.75 µM in assay [3]; 35.9 µM in assay [4]; 3.66 µM in [5]; 3.42 µM in [6]; 2.42 µM in assay [7]. This compound yielded a TGI in [8] of 5.12 µM.
As for `COc1ccc2nc3cc(Cl)ccc3c(NCCNc3c4ccc(Cl)cc4nc4ccc(OC)cc34)c2c1`, the GI50 is 2190 nM in assay [1]; 1960 nM in assay [10]; 1760 nM in assay [3]; 1100 nM in assay [5]; 2010 nM in [7]; 1640 nM in assay [8]. Besides, the TGI in [1] came to 6.68 µM; in assay [10] it was 3.58 µM; in assay [3] it was 3.21 µM; in assay [5] it was 2.98 µM; in assay [7], 3.51 µM; in assay [8], 3.39 µM.
For `CCCC(=O)[O-].N.N.N.N.N.[Co+3].[O-][Cl+3]([O-])([O-])[O-]`, the TGI in assay [1], in assay [10], in assay [2], in assay [5], in assay [6] and in assay [7] was greater than 100 µM each time. The compound also registered a TGI in [8] greater than 100 µM.
As for `Cc1ccc(NC(=O)CSC(N)=O)cc1C`, the TGI in [1], in [10], in assay [2], in assay [3], in [4] and in assay [5] was greater than 100 µM throughout. In addition, the TGI in [6], in [7] and in [8] was greater than 100 µM throughout.

The values are drawn from PubChem BioAssay (NCI).
